Values of other authors as cited in paper PMC3544362 (Journal of medicinal chemistry, 2012).
Read-outs that look alike come from different tables or passages of the source.

Legend:
[1] = rat, 60 min p.i., ref [32]
[2] = presumably rapid in vivo hydrolysis, ref [31]–[32]
[3] = Sprague-Dawley rats, 5 min p.i.; ref [12]
[4] = Wistar rats, 60 min p.i., ref [16]

## CC(C)(C)n1ncc(OCc2ccc(COCC[18F])cc2)c(Cl)c1=O [Flurpiridaz F 18]
Sprague-Dawley rats, 60 min p.i., ref [17], [46]
  heart uptake: 3.3 %ID/g
Wistar rats, 10 min p.i., ref [16]
  liver concentration: 0.99 %ID/g
[4]
  heart uptake: 2.06 %ID/g
  liver concentration: 0.38 %ID/g

## CCN(CC)c1ccc2c(-c3ccccc3C(=O)OCC[18F])c3ccc(=[N+](CC)CC)cc-3oc2c1 [[^18F]3, 2-[^18F]fluoroethyl rhodamine B]
[1]; tissue ratio
  Heart/blood: 25.8
[1]
  Blood: 0.08 ± 0.03 %ID/g
  Bone: 0.45 ± 0.08 %ID/g
  Gut: 2.40 ± 0.53 %ID/g
  Heart: 2.06 ± 0.61 %ID/g
  Kidney: 8.31 ± 0.81 %ID/g
  Liver: 0.89 ± 0.07 %ID/g
  Lung: 1.78 ± 0.65 %ID/g
  Muscle: 0.16 ± 0.04 %ID/g
  Skin: 0.20 ± 0.02 %ID/g
  Spleen: 5.63 ± 0.78 %ID/g
[2]
  accumulation in mouse myocardium: did not accumulate in mouse myocardium

## Fc1ccc([P+](c2ccccc2)(c2ccccc2)c2ccccc2)cc1 [^18F-FTPP]
[3]
  heart uptake: 1.64 %ID/g
  heart-to-blood ratio: 11
